Substitutions are numbered along the chain they refer to.

One may read the inhibition as how much of the control response was suppressed.

Holding throughout (experiment): E. coli hemG growth inhibition by herbicide, AtPPO1 variant
Type in all cases: cell-based
What all share (details): read-out: percentage growth inhibition

In one assay the target is T1, AtPPO1 A176L (Arabidopsis thaliana, UniProt P55826, A176L).
T1 construct: expressed in transfected cells; host or cells: E. coli BL21(DE3) hemG (hemG replaced by CmR), pET24a plasmid
T1 sequence (P55826 35-537 A176L): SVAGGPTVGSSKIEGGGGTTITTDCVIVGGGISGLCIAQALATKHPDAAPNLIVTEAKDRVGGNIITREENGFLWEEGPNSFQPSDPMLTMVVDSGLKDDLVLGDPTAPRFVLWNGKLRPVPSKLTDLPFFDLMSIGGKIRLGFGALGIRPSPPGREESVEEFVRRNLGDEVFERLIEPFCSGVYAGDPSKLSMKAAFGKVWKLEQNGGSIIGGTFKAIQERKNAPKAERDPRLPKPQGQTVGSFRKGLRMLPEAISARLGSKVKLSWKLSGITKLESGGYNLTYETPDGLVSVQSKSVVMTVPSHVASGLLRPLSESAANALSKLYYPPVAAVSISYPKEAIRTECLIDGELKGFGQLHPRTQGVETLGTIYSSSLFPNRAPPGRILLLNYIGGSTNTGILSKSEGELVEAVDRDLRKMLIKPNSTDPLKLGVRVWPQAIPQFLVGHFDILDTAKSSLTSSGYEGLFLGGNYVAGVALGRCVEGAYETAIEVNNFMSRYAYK
The text has this:
(§1) A pET24a plasmid containing a DNA sequence encoding a variant of PPO1 derived from Arabidopsis thaliana (AtPPO1), codon-optimised for expression in E. coli and under control of a T7 promoter, was synthesised by Twist Bioscience (SEQ ID NO:3). This plasmid was used as the basis of a Site Saturation Variant Library (SSVL) that substituted the codons at 352 amino acid positions for codons that encoded one of the other 19 amino acids, or removed the codon altogether, resulting in a translation product with a deletion at that position.
(§2) The SSVL was batch-transformed by electroporation into an E. coli BL21(DE3) hemG strain with the hemG gene replaced by CmR conferring resistance to chloramphenicol and spread onto LA supplemented with 50 μg/mL kanamycin, 25 μg/mL chloramphenicol and 20 μg/mL hematin. Each batch consisted of all the plasmids that contained variants at two sites.
(§3) Colonies from batch transformations were inoculated into 500 μL of Terrific broth supplemented with 50 μg/mL kanamycin, 25 μg/mL chloramphenicol and 20 μg/mL hematin in 96-deepwell blocks. Cultures were grown for 24 hours at 37° C. with shaking at 250 rpm.
(§4) Overnight cultures were centrifuged and the cell pellets resuspended with 500 μL of Terrific broth. The resuspended cultures were used at a ratio of 1:100 to inoculate a fresh 96-deepwell block containing 500 μL of Terrific broth supplemented with 0.1 mM IPTG, 50 μg/mL kanamycin, 25 μg/mL chloramphenicol and 6.25 ppm of herbicide […] or E or 0.78 ppm herbicide B or DMSO. Assay cultures were grown for 24 hours at 37° C. with shaking at 250 rpm with the OD600 being measured at 24 hours post inoculation. Strains that grew in both DMSO and herbicide were determined to be herbicide tolerant with the percentage of growth inhibition being calculated as below: […]

For the next assay, the target named is T2, AtPPO1 E111D (Arabidopsis thaliana, UniProt P55826, E111D).
T2 construct: expressed in transfected cells; host or cells: E. coli BL21(DE3) hemG (hemG replaced by CmR), pET24a plasmid
T2 sequence (P55826 35-537 E111D): T1 sequence (P55826 35-537 A176L) with E77D, L142A
From the text: as §1, §2, §3, §4

A further assay deals with T3, AtPPO1 G404A (Arabidopsis thaliana, UniProt P55826, G404A).
T3 construct: expressed in transfected cells; host or cells: E. coli BL21(DE3) hemG (pET24a, T7 promoter)
T3 sequence (P55826 35-537 G404A): T1 sequence (P55826 35-537 A176L) with L142A, G370A
From the text: as §1, §2, §3, §4

In the next assay the target is T4, AtPPO1 Y219S (Arabidopsis thaliana, UniProt P55826, Y219S).
T4 construct: expressed in transfected cells; host or cells: E. coli BL21(DE3) hemG (hemG replaced by CmR), pET24a plasmid
T4 sequence (P55826 35-537 Y219S): T1 sequence (P55826 35-537 A176L) with L142A, Y185S
From the text: as §1, §2, §3, §4

`C#CCN1C(=O)C(F)(F)Oc2cc(F)c(-n3c(=O)n(C)c(=S)n(C)c3=O)cc21` [Herbicide B, trifludimoxazin]: the inhibition at 0.78 ppm worked out at 35% at AtPPO1 A176L, 23% on AtPPO1 E111D, 12% on AtPPO1 G404A and 28% at AtPPO1 Y219S.

On to `CCOC(=O)[C@]1(C)CC(c2cc(-n3c(=O)n(C)c(=S)n(C)c3=O)c(F)cc2Cl)=NO1` [Herbicide D, ethyl (5S)-3-[2-chloro-5-(3,5-dimethyl-2,6-dioxo-4-thioxo-1,3,5-triazinan-1-yl)-4-fluoro-phenyl]-5-methyl-4H-isoxazole-5-carboxylate], for which the inhibition at 6.25 ppm on AtPPO1 A176L was determined as 42%; on AtPPO1 E111D, 30%; at AtPPO1 G404A, 4%; on AtPPO1 Y219S, 33%.

As for `CC(C)N(C)S(=O)(=O)NC(=O)c1cc(-n2c(=O)cc(C(F)(F)F)n(C)c2=O)c(F)cc1Cl` [Herbicide E, saflufenacil], the inhibition at 6.25 ppm at AtPPO1 A176L was determined as 61%; on AtPPO1 E111D it was 69%; on AtPPO1 G404A, 2%; on AtPPO1 Y219S it was 49%.
